We go through 1 compound from patent US20090123419A1, “TREATMENT OF UTERINE CANCER AND OVARIAN CANCER WITH A PARP INHIBITOR ALONE OR IN COMBINATION WITH ANTI-TUMOR AGENTS” (BiPar Sciences, priority 2007, published 2009).

For series [1], the target named is T1, PARP (Homo sapiens, UniProt P09874).
T1 construct: endogenous in cells; host or cells: peripheral blood mononuclear cells from patients dosed with BA
The series can be described thus: PARP activity assay in peripheral blood mononuclear cells (PBMCs) from patients. It is filed as in vivo. The conditions noted are these: for PARP inhibition in PBMCs: after multiple dosing with BA doses of 2.8 mg/kg or higher, FIG. 5, 2.8 mg/kg. As for the experimental part: (§1) Whole blood is collected into EDTA vacutainers and human PBMCs are obtained by BD Vacutainer™ CPT™ Cell Preparation kit according to the manufacturer's instructions (BD Vacutainer™, REF 362760). Tumor samples are collected in a sterile container and placed immediately on ice. Within 30 minutes, tumor samples are snap-frozen in liquid nitrogen and stored at −80° C. until homogenized for analysis. The specimen is defrosted on ice and the wet weight is documented. The tissue is homogenized using isotonic buffer [7 mmol/L HEPES, 26 mmol/L KCl, 0.1 mmol/L dextran, 0.4 mmol/L EGTA, 0.5 mmol/L MgCl2, 45 mmol/L sucrose (pH 7.8)]. The homogenate is kept on ice throughout the process, and homogenization is done in 10-second bursts to prevent undue warming of the sample. Unless assayed on the day of homogenization, samples are refrozen to −80° C. and stored at this temperature until analyzed.
(§2) Cell preparations are defrosted rapidly at room temperature and washed twice in ice-cold PBS. […] Maximally stimulated PARP activity is measured in replicate samples of 20,000 cells in a reaction mixture containing […] NAD+ and 10 mg/mL oligonucleotide in a reaction buffer of 100 mmol/L Tris-HCl, 120 mmol/L MgCl2 (pH 7.8) in a final volume of […] as described previously (24) at 26° C. in an oscillating water bath. […] Purified PAR standards are loaded onto each membrane (0-25 pmol monomer equivalent) to generate a standard curve and allow quantification. […] Chemiluminesence detected during a 5-minute exposure is measured using a Fuji LAS3000 UV Illuminator (Raytek, Sheffield, United Kingdom) and digitized using the imaging software (Fuji LAS Image version 1.1, Raytek). The acquired image is analyzed using Aida Image Analyzer (version 3.28.001), and results are expressed in LAU/mm2. Three background areas on the exposed blot are measured and the mean of the background signal from the membrane is subtracted from all results. The PAR polymer standard curve is analyzed using an unweighted one-site binding nonlinear regression model and unknowns read off the standard curve so generated. […]

Series [2] in a line: Clinical safety experience with BA to date. The series is classed as in vivo, human.
In series [3] the test system is PARP. Kind of series: PARP activity in tissue samples from OVCAR-3 xenograft model. It is filed as in vivo, SCID mice. The conditions noted are these: after a single dose of BA; for effect on PARP activity in xenograft tissue samples: FIG. 2.
Text: The human OVCAR-3 (NIH-OVCAR-3) ovarian adenocarcinoma utilized in the study is maintained in athymic nude mice by serial engraftment. The human SW620 colon adenocarcinoma utilized in the study is maintained in nude mice by serial engraftment.
as §1
as §2, with “[…]” for “pmol”, “LAU/mm^2.” for “LAU/mm2. Three background areas on the exposed blot are measured and the mean of the background signal from the membrane is subtracted from all results. The PAR polymer standard curve is analyzed using an unweighted one-site binding nonlinear regression model and unknowns read off the standard curve so generated.”

In a further series the test system is normal cells. The series can be described thus: Toxic effects of BA in normal cells. The series is classed as cell-based.
The mark [4] stands for this setting: listed as 4-iodo-3-nitrobenzamide.

Molecules are shown by their SMILES.

T1 sequence (P09874 whole entry): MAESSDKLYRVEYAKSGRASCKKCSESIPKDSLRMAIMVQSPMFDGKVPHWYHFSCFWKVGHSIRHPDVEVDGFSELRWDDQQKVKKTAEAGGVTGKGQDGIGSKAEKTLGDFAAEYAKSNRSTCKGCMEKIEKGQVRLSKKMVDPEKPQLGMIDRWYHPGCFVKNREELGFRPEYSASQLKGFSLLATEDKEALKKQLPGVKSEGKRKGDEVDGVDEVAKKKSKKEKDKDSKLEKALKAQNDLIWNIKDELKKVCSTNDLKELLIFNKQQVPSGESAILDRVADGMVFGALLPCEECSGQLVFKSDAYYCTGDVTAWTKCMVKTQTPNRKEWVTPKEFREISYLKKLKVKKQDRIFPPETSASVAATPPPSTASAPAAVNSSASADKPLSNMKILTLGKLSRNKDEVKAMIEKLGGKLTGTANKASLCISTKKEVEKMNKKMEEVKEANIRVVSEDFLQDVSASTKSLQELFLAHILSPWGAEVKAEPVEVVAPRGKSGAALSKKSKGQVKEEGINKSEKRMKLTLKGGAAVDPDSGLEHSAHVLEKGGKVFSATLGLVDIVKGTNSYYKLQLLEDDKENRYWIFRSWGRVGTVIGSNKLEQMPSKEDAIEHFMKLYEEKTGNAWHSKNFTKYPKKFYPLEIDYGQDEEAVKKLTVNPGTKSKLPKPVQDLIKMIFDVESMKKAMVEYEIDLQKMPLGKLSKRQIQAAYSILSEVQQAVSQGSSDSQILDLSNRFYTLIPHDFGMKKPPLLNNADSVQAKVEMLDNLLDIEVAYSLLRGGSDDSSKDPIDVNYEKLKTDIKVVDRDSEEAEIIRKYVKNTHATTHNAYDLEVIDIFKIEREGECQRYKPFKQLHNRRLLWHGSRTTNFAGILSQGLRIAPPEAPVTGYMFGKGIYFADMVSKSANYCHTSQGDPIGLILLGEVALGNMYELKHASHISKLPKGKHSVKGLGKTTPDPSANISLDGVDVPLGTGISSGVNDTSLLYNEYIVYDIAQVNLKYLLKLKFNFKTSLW

On to `NC(=O)c1ccc(I)c([N+](=O)[O-])c1` [BA, 4-iodo-3-nitrobenzamide], for which the “PARP inhibition in PBMCs” value on PARP [1] is “significant and prolonged PARP inhibition”; on PARP [1] (setting [4]), “PARP inhibition”. The “biologically relevant dose that elicits significant and sustained PARP inhibition” value on PARP [1] (at effective preclinical blood concentrations) is on record as 2.8 mg/kg. Moreover, in series [2], the safety and tolerability entry was “safe and well-tolerated”. For the same compound, the “serious adverse events or grade 3 or 4 toxicities associated with BA” value in series [2] was “no serious adverse events or grade 3 or 4 toxicities”. In addition, the figures for the “effect on PARP activity in xenograft tissue samples” value in the series on PARP [3] and in the series on PARP [3] (setting [4]) were “inhibitory effect” and “inhibition of PARP”, respectively. Besides, the “duration of inhibitory effect on PARP activity” value with PARP [3] (hours of observation) was “at least 8 hours”. Further, the “toxic effects in normal cells” value in the series on normal cells is “without exerting toxic effects in normal cells”.
